Holding throughout (test): stopped-flow CO2 hydrase assay
Common to all, as to type: biochemical

One assay deals with T1, hCA VII (Homo sapiens, UniProt P43166).
T1 construct: gene CA7; recombinant, obtained in-house; cytosolic alpha-CA
The note with it: read-out: KI (nM) ^a / hCA VII (α-CA). From the text:
stopped-flow CO2 hydrase assay on hCA VII

In another assay the target is T2, MgCA (Malassezia globosa, UniProt A8Q1N3).
T2 construct: gene MGL_1814; recombinant, obtained in-house; beta-CA
T2 sequence (A8Q1N3 1-241): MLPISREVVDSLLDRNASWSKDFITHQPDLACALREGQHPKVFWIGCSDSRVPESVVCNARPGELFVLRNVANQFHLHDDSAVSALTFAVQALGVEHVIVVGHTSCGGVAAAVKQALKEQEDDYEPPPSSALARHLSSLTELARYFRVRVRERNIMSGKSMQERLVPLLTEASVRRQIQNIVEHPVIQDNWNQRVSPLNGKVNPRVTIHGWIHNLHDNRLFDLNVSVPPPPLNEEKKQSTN
The note with it: […] TRIS pH […] Na2SO4, […] h preincubation at room temperature; read-out: KI (nM) ^a / MgCA (β-CA).

In the next assay the target is T3, hCA II (Homo sapiens, UniProt P00918).
T3 construct: gene CA2; recombinant, obtained in-house; cytosolic alpha-CA
The note with it: read-out: KI (nM) ^a / hCA II (α-CA). The source says: stopped-flow CO2 hydrase assay on hCA II

In the next assay the target is T4, CgNce103 (Nakaseomyces glabratus, UniProt Q6FTL6).
T4 construct: gene NCE103; recombinant, obtained in-house; beta-CA
T4 sequence (Q6FTL6 1-219): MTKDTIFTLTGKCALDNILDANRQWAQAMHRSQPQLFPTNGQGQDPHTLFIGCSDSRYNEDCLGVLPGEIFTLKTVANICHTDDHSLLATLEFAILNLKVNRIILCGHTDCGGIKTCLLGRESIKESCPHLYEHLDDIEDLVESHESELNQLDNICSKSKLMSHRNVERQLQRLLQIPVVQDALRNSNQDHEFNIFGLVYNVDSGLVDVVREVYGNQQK
The note with it: read-out: KI (nM) ^a / CgNce103 (β-CA).

Another assay addresses T5, hCA I (Homo sapiens, UniProt P00915).
T5 construct: gene CA1; recombinant, obtained in-house; cytosolic alpha-CA
The conditions noted are these: read-out: KI (nM) ^a / hCA I (α-CA). The source says: stopped-flow CO2 hydrase assay on hCA I

A value given as a limit tells only on which side of the number the result lay.

T1 sequence (P43166 whole entry): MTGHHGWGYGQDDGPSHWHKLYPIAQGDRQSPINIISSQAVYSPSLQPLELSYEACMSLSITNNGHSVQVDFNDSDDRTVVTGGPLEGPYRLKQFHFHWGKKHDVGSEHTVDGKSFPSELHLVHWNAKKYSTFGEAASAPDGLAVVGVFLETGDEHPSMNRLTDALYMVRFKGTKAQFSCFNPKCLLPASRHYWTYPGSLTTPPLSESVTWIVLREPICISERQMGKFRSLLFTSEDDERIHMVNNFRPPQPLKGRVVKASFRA
T5 sequence (P00915 2-261): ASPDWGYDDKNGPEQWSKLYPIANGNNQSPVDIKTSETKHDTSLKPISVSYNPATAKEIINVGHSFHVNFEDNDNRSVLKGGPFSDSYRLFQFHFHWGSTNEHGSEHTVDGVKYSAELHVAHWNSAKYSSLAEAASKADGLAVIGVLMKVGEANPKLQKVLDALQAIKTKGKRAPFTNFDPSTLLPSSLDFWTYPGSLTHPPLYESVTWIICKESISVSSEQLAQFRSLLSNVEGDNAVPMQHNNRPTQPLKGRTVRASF

In the case of `Cc1cccc(CN2C(=O)CN(c3ccc(S(N)(=O)=O)cc3)C2=O)c1` [8k, 4-(3-(3-Methylbenzyl)-2,4-dioxoimidazolidin-1-yl)benzenesulfonamide], the Ki is 18.8 nM on hCA VII; over 100000 nM at MgCA; 58.3 nM at hCA II; 8.4 nM at CgNce103; 1080 nM on hCA I.
For `NS(=O)(=O)c1ccc(N2CC(=O)N(Cc3ccc(Cl)cc3)C2=O)cc1` [8f, 4-(3-(4-Chlorobenzyl)-2,4-dioxoimidazolidin-1-yl)benzenesulfonamide], the Ki on hCA VII turned out to be 15.3 nM; at MgCA it was 41500 nM; at hCA II it was 62.2 nM; at CgNce103, 44.9 nM; at hCA I it was 8790 nM.
For `NS(=O)(=O)c1ccc(N2CC(=O)N(Cc3ccccc3)C2=O)cc1` [8d, 4-(3-Benzyl-2,4-dioxoimidazolidin-1-yl)benzenesulfonamide], the Ki is 5.3 nM on hCA VII; 64600 nM at MgCA; 8.7 nM on hCA II; 20.9 nM on CgNce103; 837 nM at hCA I.
Taken in the same sequence, the figures for `NS(=O)(=O)c1ccc(N2CC(=O)N(Cc3ccc(C(F)(F)F)cc3)C2=O)cc1` [8i, 4-(2,4-Dioxo-3-(4-(trifluoromethyl)benzyl)imidazolidin-1-yl)benzenesulfonamide] were 14.3 nM, 59600 nM, 43.3 nM, 13.1 nM and 601 nM.
Taken in the same sequence, the figures for `CCCCCCCN1C(=O)CN(c2ccc(S(N)(=O)=O)cc2)C1=O` [8b, 4-(3-Heptyl-2,4-dioxoimidazolidin-1-yl)benzenesulfonamide] were 187 nM, 95700 nM, 56.4 nM, 83.7 nM and 747 nM.
Taken in the same sequence, the figures for `NS(=O)(=O)c1ccc(N2CC(=O)N(Cc3c(F)c(F)c(F)c(F)c3F)C2=O)cc1` [8n, 4-(2,4-Dioxo-3-((perfluorophenyl)methyl)imidazolidin-1-yl)benzenesulfonamide] were 16.9 nM, 34900 nM, 91.2 nM, 35.7 nM and 415 nM.
As for `N#Cc1ccc(CN2C(=O)CN(c3ccc(S(N)(=O)=O)cc3)C2=O)cc1` [8g, 4-(3-(4-Cyanobenzyl)-2,4-dioxoimidazolidin-1-yl)benzenesulfonamide], the Ki on hCA VII was 12 nM; at MgCA, over 100000 nM; at hCA II it was 7.2 nM; on CgNce103, 38.4 nM; at hCA I, 570 nM.
In the case of `NS(=O)(=O)c1ccc(N2CC(=O)NC2=O)cc1` [compound 6, 4-(2,4-Dioxoimidazolidin-1-yl)benzenesulfonamide], the Ki is 61.4 nM at hCA VII; 37200 nM on MgCA; 18.1 nM at hCA II; 29.5 nM at CgNce103; 504 nM on hCA I.
In the case of `NS(=O)(=O)c1ccc(N2CC(=O)N(Cc3ccc([N+](=O)[O-])cc3)C2=O)cc1` [8h, 4-(3-(4-Nitrobenzyl)-2,4-dioxoimidazolidin-1-yl)benzenesulfonamide], the Ki at hCA VII was 30.3 nM; at MgCA, over 100000 nM; at hCA II it was 6.1 nM; at CgNce103 it was 6.6 nM; on hCA I, 657 nM.
Turning to `NS(=O)(=O)c1ccc(N2CC(=O)N(Cc3ccc(OC(F)(F)F)cc3)C2=O)cc1` [8j, 4-(2,4-Dioxo-3-(4-(trifluoromethoxy)benzyl)imidazolidin-1-yl)benzenesulfonamide], the Ki at hCA VII is 22.4 nM; at MgCA it was over 100000 nM; at hCA II, 16.4 nM; at CgNce103 it was 5.9 nM; at hCA I, 425 nM.
Taken in the same sequence, the figures for `NS(=O)(=O)c1ccc(N2CC(=O)N(Cc3ccc(Cl)c(Cl)c3)C2=O)cc1` [8m, 4-(3-(3,4-Dichlorobenzyl)-2,4-dioxoimidazolidin-1-yl)benzenesulfonamide] were 133 nM, over 100000 nM, 85.6 nM, 67.9 nM and 688 nM.
`Cc1ccc(CN2C(=O)CN(c3ccc(S(N)(=O)=O)cc3)C2=O)cc1` [8e, 4-(3-(4-Methylbenzyl)-2,4-dioxoimidazolidin-1-yl)benzenesulfonamide]: the Ki at hCA VII is 3 nM; on MgCA, 38900 nM; on hCA II it was 32.7 nM; on CgNce103, 18.3 nM; on hCA I, 2930 nM.
Take `CCN1C(=O)CN(c2ccc(S(N)(=O)=O)cc2)C1=O` [8a, 4-(3-Ethyl-2,4-dioxoimidazolidin-1-yl)benzenesulfonamide]: the Ki at hCA VII stood at 30.8 nM; at MgCA it was 68100 nM; at hCA II, 25.8 nM; on CgNce103, 46 nM; at hCA I it was 262 nM.
On to `C=CCN1C(=O)CN(c2ccc(S(N)(=O)=O)cc2)C1=O` [8c, 4-(3-Allyl-2,4-dioxoimidazolidin-1-yl)benzenesulfonamide], for which the Ki amounted to 19.5 nM on hCA VII; 66600 nM at MgCA; 32.6 nM on hCA II; 54.2 nM on CgNce103; 234 nM at hCA I.
Regarding `NS(=O)(=O)c1ccc(N2CC(=O)N(Cc3ccccc3F)C2=O)cc1` [8l, 4-(3-(2-Fluorobenzyl)-2,4-dioxoimidazolidin-1-yl)benzenesulfonamide], the Ki on hCA VII came to 12.7 nM; at MgCA it was 81100 nM; on hCA II it was 1.2 nM; at CgNce103 it was 48.8 nM; at hCA I, 447 nM.

The values are drawn from article PMC9696710 (International Journal of Molecular Sciences, 2022).
